Assay results: US20040048369A1, “Control of inward-rectifier K+ ion channels” (priority 2002, published 2004)
Read-outs that look alike come from different tables or passages of the source.

Key:
IRK1 channels [1] = target: T1, IRK1 channels (Mus musculus, UniProt P35561); experiment: Block of IRK1 currents by intracellular chemicals, inside-out patches of Xenopus oocytes injected with IRK1 cRNA; format: cell-based; settings: for inward rectification with intracellular metal ion chelator: each at 5 mM, pH 7.6, phosphate buffer
T1 construct: expressed in transfected cells; host or cells: Xenopus laevis oocytes injected with IRK1 cRNA; inside-out patches
T1 sequence (P35561 1-428): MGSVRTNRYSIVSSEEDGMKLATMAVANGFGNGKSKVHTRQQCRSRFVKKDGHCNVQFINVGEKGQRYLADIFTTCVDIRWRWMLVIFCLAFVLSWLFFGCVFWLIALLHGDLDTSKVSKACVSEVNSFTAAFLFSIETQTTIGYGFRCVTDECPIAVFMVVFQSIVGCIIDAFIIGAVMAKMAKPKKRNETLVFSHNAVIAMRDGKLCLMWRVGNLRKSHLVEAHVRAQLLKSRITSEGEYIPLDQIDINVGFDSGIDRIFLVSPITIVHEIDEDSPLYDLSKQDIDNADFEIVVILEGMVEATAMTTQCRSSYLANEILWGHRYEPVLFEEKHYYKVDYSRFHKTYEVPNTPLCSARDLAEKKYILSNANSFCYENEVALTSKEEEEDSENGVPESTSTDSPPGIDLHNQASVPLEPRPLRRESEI
Experimental: IRK1 cDNA (Kubo et al., 1993) was cloned into the pGEM-Hess plasmid (IRK1-pGEMHess construct, provided by J. Yang). RNA was synthesized using T7 polymerase (Promega Corp., Madison, Wis.) from Nhe1-linearized cDNAs. Oocytes harvested from Xenopus laevis (Xenopus One, Ann Arbor, Mich.) were incubated in a solution containing NaCl, 82.5 mM; KCI, 2.5 mM; MgCl2, 1.0 mM; HEPES (pH 7.6), 5.0 mM and collagenase, 2-4 mg/ml. The oocyte preparation was agitated at 80 rpm for 60-90 minutes. It was then rinsed thoroughly and stored in a solution containing NaCl, 96 mM; KCl, 2.5 mM; CaCl2, 1.8 mM; MgCl2, 1.0 mM; HEPES (pH 7.6), 5 mM and gentamicin, 50 μg/ml. Defolliculated oocytes were selected and injected with RNA at least 2 and 16 hours, respectively, after collagenase treatment. All oocytes were stored at 18° C.
(§1) IRK1 currents were recorded from inside-out membrane patches of Xenopus oocytes (injected with IRK1cRNA) with an Axopatch 200B amplifier (Axon Instruments, Inc., Foster City, Calif.), filtered at 5 kHz, and sampled at 25 kHz using an analog-to-digital converter (DigiData 1200, Axon Instruments) interfaced with a personal computer. pClamp6 software (Axon Instruments) was used to control the amplifier and acquire the data. During current recording, the voltage across the membrane patch was first hyperpolarized from the 0 mV holding potential to −100 mV, and then stepped to various test voltages, or stepped directly from the holding potential. […] Background leak current correction was carried out as previously described (Lu and MacKinnon, Nature 371:243-246 (1994); Guo and Lu, 2000a). To effectively perfuse the patch, the tip of the patch pipette (3 MΣ) was immersed in a stream of intracellular solution exiting one of ten glass capillaries (ID=0.2 mm) mounted in parallel.
All recording solutions contained 100 mM K^+ contributed by KCl, K2EDTA, K2HPO4, KH2PO4, and KOH. The phosphate-buffered intracellular solution contained 5 mM K2EDTA (unless specified otherwise), and 10 mM “K2HPO4+KH2PO4” in a ratio yielding the desired pH, and sufficient KCl to bring total K^+ concentration to 100 mM (Guo and Lu, 2000a). The HEPES-buffered intracellular solution, as used in FIG. 3, contained (100 mM K^+ (Cl^−+OH^−), 5 mM EDTA and 10 mM HEPES, pH 7.2 (adjusted with KOH). The HEPES-buffered extracellular solution contained 100 mM K^+ (Cl^−+OH^−), 0.3 mM CaCl2, 1.0 mM MgCl2, and 10 mM HEPES, pH 7.6 (adjusted with KOH). In the phosphate-buffered extracellular solution, HEPES was replaced by an equal concentration of “K2HPO4+KH2PO4” in a ratio yielding pH 7.6. The divalent cation-free extracellular solution contained 5 mM EDTA. All chemicals were purchased from Fluka Chemical Corp.
In all cases the intracellular solutions contained 100 mM K^+, 5 mM EDTA and 10 mM phosphate (pH 7.6) in addition to the tested chemicals, while the extracellular solution contained 100 mM K^+, 0.3 mM Ca^2+, 1 mM Mg^2+, 10 mM phosphate (pH 7.6). The currents were corrected for background current.

IRK1 channels [2] = target: T1, IRK1 channels; experiment: Relaxation/block of inward IRK1 currents by extracellular chemicals, inside-out patches; format: cell-based; settings: 10 mM HEPES, 3 μM HEP or 0.3 μM piperazine
Experimental: as §1
The phosphate-buffered intracellular solution contained 5 mM K2EDTA (unless specified otherwise), and 10 mM “K2HPO4+KH2PO4” in a ratio yielding the desired pH, and sufficient KCl to bring total K^+ concentration to 100 mM (Guo and Lu, 2000a). The HEPES-buffered intracellular solution, as used in FIG. 3, contained (100 mM K^+ (Cl^−+OH^−), 5 mM EDTA and 10 mM HEPES, pH 7.2 (adjusted with KOH). The HEPES-buffered extracellular solution contained 100 mM K^+ (Cl^−+OH^−), 0.3 mM CaCl2, 1.0 mM MgCl2, and 10 mM HEPES, pH 7.6 (adjusted with KOH). In the phosphate-buffered extracellular solution, HEPES was replaced by an equal concentration of “K2HPO4+KH2PO4” in a ratio yielding pH 7.6. The divalent cation-free extracellular solution contained 5 mM EDTA. All chemicals were purchased from Fluka Chemical Corp.
Since solutions in the quoted study were HEPES buffered, currents elicited with the voltage protocol used to produce the data in FIG. 12 were evaluated with no added divalent cations in the extracellular solution to determine whether the current relaxation was due to the use of extracellular HEPES.
The channel block associated with extracellular HEPES was examined to determine whether it could also be caused by residual contaminants. Intra- and extracellular solutions were buffered with 10 mM phosphate. […] The ratio of currents at the end and the beginning of voltage pulses (Iend/Ibgn) was plotted against membrane voltage.

IRK1 channels [3] = target: T1, IRK1 channels; settings: 2000b, cited from earlier work
Kir2.1 = Kir2.1 (Homo sapiens, UniProt P63252); settings: 100 μM; cited from earlier work
Kir1.1 = Kir1.1 (Homo sapiens, UniProt P48048); settings: 100 μM; cited from earlier work
Shaker channel = Shaker channel (Drosophila melanogaster, UniProt P08510); settings: 100 μM; cited from earlier work
[4] = system: Kir2.1 (E224 and E299 replaced with neutral ones); settings: 100 μM; cited from earlier work
[5] = Goodman & Gilman's; cited from earlier work
[6] = intracellular blocker, Kd at 0 mV, mean±sem, read-out: Kd (0 mV), fit of the Woodhull equation

Sequence of Kir2.1 (P63252 whole entry): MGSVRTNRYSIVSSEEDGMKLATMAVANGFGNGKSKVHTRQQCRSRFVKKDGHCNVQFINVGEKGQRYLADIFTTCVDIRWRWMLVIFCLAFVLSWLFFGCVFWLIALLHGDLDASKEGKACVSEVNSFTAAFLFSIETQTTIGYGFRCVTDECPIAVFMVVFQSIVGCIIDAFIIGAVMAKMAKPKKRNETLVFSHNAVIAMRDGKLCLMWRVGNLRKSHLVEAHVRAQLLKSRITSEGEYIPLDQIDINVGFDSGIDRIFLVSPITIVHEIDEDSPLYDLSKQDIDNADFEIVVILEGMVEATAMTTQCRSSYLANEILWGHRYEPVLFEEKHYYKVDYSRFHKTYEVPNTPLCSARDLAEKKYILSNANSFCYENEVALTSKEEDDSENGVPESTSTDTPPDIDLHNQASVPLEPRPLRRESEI
Sequence of Kir1.1 (P48048 whole entry): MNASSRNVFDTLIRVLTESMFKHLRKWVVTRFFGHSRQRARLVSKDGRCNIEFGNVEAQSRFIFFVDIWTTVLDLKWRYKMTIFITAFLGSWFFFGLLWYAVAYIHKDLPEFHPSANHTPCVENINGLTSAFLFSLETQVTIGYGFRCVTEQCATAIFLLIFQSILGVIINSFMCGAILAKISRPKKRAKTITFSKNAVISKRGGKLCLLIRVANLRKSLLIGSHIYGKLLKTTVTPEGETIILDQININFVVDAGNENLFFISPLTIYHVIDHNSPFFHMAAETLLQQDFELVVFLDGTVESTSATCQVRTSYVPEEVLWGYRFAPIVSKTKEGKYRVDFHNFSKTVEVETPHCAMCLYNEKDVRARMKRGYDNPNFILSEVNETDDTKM
Sequence of Shaker channel (P08510 whole entry): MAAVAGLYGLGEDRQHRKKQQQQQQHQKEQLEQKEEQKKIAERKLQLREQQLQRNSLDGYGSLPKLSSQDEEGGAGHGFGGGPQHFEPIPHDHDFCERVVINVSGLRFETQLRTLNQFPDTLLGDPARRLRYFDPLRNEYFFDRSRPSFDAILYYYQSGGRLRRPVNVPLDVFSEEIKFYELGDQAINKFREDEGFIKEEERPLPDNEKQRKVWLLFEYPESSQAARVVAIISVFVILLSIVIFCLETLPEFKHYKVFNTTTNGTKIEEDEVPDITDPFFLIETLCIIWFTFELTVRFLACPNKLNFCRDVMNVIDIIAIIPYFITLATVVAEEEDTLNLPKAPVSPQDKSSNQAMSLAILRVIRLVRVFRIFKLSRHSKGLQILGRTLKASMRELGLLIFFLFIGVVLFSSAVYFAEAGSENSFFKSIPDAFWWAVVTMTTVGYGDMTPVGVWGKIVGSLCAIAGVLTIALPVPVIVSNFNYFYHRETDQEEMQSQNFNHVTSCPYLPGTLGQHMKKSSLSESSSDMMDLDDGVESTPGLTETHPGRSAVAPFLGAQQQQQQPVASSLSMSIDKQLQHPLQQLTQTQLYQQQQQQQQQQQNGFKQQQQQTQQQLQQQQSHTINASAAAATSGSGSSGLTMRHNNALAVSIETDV

Q: With `O=S(=O)(O)CCN1CCN(CCO)CC1` [HEPES, 4-(2 hydroxyethyl)-1-piperazineethanesulfonic acid] as the compound, how does the “Z (valence), fit of the Woodhull equation” value (“Z (valence), fit” below) (IRK1 channels [1]; intracellular blocker) read?
A: 1.02±0.02

Q: And the “inward current relaxation / channel block by extracellular chemical” value (IRK1 channels [2]; 20 mM extracellular K+)?
A: prominent inward current relaxation

Q: And the “inward current relaxation / channel block by extracellular chemical” value (IRK1 channels [2]; 100 mM extracellular K+)?
A: little or no relaxation

Q: Which results are given for `OCCN1CCNCC1` [HEP, hydroxyethyl piperazine]?
A: relative potency of channel block (qualitative) (IRK1 channels [1]; 10 mM HEPES, 3 μM HEP, 0.3 μM piperazine, intracellular): much more potent; Z (valence), fit of the Woodhull equation (IRK1 channels [1]; intracellular blocker): 1.09±0.03; Kd (IRK1 channels [1]; [6]): 2970 ± 160 µM; inward current relaxation / channel block by extracellular chemical (IRK1 channels [2]; 20 mM extracellular K+): blocked the channels

Q: With `NCCCNCCCCNCCCN` [spermine] as the compound, how does the “effective valence of channel block” value (IRK1 channels [3]; Guo and Lu 2000a) read?
A: ~5

Q: What about the Kd (IRK1 channels [3]; Guo and Lu 2000a, read-out: Kd (0 mV) for binding of fully protonated spermine) of the same compound?
A: ~0.1 µM

Q: With `O=C(O)CN(CCN(CC(=O)O)CC(=O)O)CC(=O)O` [EDTA, ethylene diamine tetraacetic acid] as the compound, how does the “inward rectification with intracellular metal ion chelator” value (from here on “inward rectification”) (IRK1 channels [1]) read?
A: least rectification

Q: For `[Mg+2]` [Mg^2+], which Kd (IRK1 channels [1]; intracellular Mg2+, FIG. 7B, read-out: Kd (0 mV), fit of the Woodhull equation to the Mg2+-inhibition curve) is on record?
A: 17 µM

Q: And the “Z (valence), fit” value (IRK1 channels [1]; intracellular blocker)?
A: 1.1

Q: With `O=C(O)CN(CCOCCOCCN(CC(=O)O)CC(=O)O)CC(=O)O` [EGTA, ethylene glycol bis(β-aminoethyl ether) N,N,N′,N′-tetraacetic acid] as the compound, how does the “inward rectification” value (IRK1 channels [1]) read?
A: more pronounced

Q: For `O=C(O)CN(CC(=O)O)C1CCCCC1N(CC(=O)O)CC(=O)O` (stereo not drawn) [CDTA, cyclohexane 1,2-diaminetetraacetic acid], which “inward rectification” value (IRK1 channels [1]) is on record?
A: more pronounced

Q: For `NCCN` [ethylenediamine], which “potency of channel block relative to EDTA” value (IRK1 channels [1]; 0.1 μM ethylenediamine versus 30 mM EDTA, intracellular) is on record?
A: > 10,000 fold

Q: And the “Z (valence)” value (IRK1 channels [3]; Guo and Lu)?
A: 2

Q: And the Kd (IRK1 channels [3]; Guo and Lu, read-out: Kd (0 mV))?
A: 1400 µM

Q: For `C1CNCCN1` [piperazine], which “Z (valence), fit” value (IRK1 channels [1]; intracellular blocker) is on record?
A: 1.08±0.02

Q: What about the Kd (IRK1 channels [1]; [6]) of the same compound?
A: 270 ± 40 µM

Q: What about the “inward current relaxation / channel block by extracellular chemical” value (IRK1 channels [2]; 20 mM extracellular K+) of the same compound?
A: blocked the channels

Q: What about the “inhibition of Kir2.1” value (Kir2.1) of the same compound?
A: dramatically inhibits

Q: And the “effect on Kir1.1” value (Kir1.1)?
A: no effects

Q: What about the “effect on Shaker channel” value (Shaker channel) of the same compound?
A: no effects

Q: And the “sensitivity of mutant Kir2.1” value [4]?
A: practically insensitive

Q: What about the “adverse effects attending use” value [5] of the same compound?
A: Occasional gastrointestinal upset, transient neurological effects, and urticarial reaction

Q: What about the “laboratory studies on patients receiving treatment for several days” value [5] of the same compound?
A: no abnormality

Q: What about the use during pregnancy [5] of the same compound?
A: without ill effect
